# Source: US5707615A, “Method of treating HIV infections with anti-viral formulations” (Merrell Pharmaceuticals Inc., priority 1997, dated 1998)
# Assays:
# MT4 cells = assay: Toxicity to MT4 cells (TD50, Table IV, MTT); assay type: cell-based; conditions: MT4 cells, 7 days, MTT
# Procedure: (§1) Various oligomers were dissolved in RPMI and were then assayed for anti-HIV activity by making doubling dilutions of the solutions across a 96 well microtitre plate. To each well were then added 5×10^4 cells and 100 TCID50 of virus and the plates incubated at 37° C. for 7 days. MTT was added to each well and the plates incubated for a further 2 hours. The blue formazan crystals were dissolved using acidic isopropanol, and the absorbance measured at 540 nm.
# HIV strain RF = assay: Ability to prevent virus-induced cell death using MT4 cells and strain RF (Example III); assay type: cell-based; conditions: MT4 cells, 7 days, MTT, 10080 min
# Procedure: as §1
# HIV (Strain GB8) = assay: JM cells infected with HIV strain GB8: syncytia and p24 (Example VII); assay type: cell-based; conditions: for p24 3 days p.i.: supernatant screened at 1/100 dilution
# Procedure: JM cells were infected with HIV (Strain GB8) to give approximately 200 syncytia/1×10^5 cells after 3 days; virus infection was for 1 hour at room temperature.
# HIV (Strain RF) = assay: Anti-HIV activity in C8166 cells infected with HIV strain RF: syncytia and p24 (Example VI); assay type: cell-based; conditions: for p24 % of VIRUS CONTROL: 2880 min
# Procedure: Protocol: C8166 cells were infected with HIV (Strain RF) for 1 hour at room temperature to give a multiplicity of infection of approximately 0.01 infectious units per cell.
# HIV-I (GB8) = assay: Pretreatment of JM cells and block of HIV-I (GB8) infection (Example IV); conditions: pretreated overnight at 20 μg/mL
# Procedure: JM cells were pretreated overnight at 37° C. with different compounds at 20 μg/mL or left untreated. The cells were washed 3 times in RPMI medium and then infected with HIV-I (GB8) for 2 hours at room temperature. The cells were again washed 3 times in RPMI medium and resuspended in fresh medium prior to being distributed into duplicate wells and incubated at 37° C. After 2 days syncytia were scored and the cell free supernatant fluid harvested and assayed for P24 viral core antigen using the Coulter™ HIV antigen assay.
Substance,TD50 (MT4 cells) [µg/mL],ED50 (HIV strain RF) [µg/mL],MEAN SYNCYTIA 3 days p.i. (HIV (Strain GB8); 25 μg/ml),p24 3 days p.i. (HIV (Strain GB8); 25 μg/ml) [pg/mL],MEAN SYNCYTIA 3 days p.i. (HIV (Strain GB8); 50 μg/ml),p24 3 days p.i. (HIV (Strain GB8); 50 μg/ml),MEAN SYNCYTIA 3 days p.i. (HIV (Strain GB8); 100 μg/ml),MEAN SYNCYTIA 3 days p.i. (HIV (Strain GB8); 200 μg/ml),p24 Day 2 (HIV (Strain RF); 12 μg/ml),p24 % of VIRUS CONTROL (HIV (Strain RF); 12 μg/ml) [%],p24 Day 2 (HIV (Strain RF); 25 μg/ml),p24 % of VIRUS CONTROL (HIV (Strain RF); 25 μg/ml) [%],p24 Day 2 (HIV (Strain RF); 50 μg/ml),p24 % of VIRUS CONTROL (HIV (Strain RF); 50 μg/ml) [%],p24 Day 2 (HIV (Strain RF); 100 μg/ml),p24 % of VIRUS CONTROL (HIV (Strain RF); 100 μg/ml) [%],further results
"poly[imino(2,5-disulfo-1,4-phenylene)iminocarbonyl], alpha-{[(4-methylphenyl)amino]carbonyl}-omega-[(4-methylphenyl)amino]- [Example 3B]",> 100,1.7,,,,,,,,,,,,,,,
"poly[oxy(2,5-disulfo-1,4-phenylene)oxycarbonyl], alpha-[(4-methylphenoxy)carbonyl]-omega-(4-methylphenoxy)- [Example 4]",,,95,6500,64,neg,Toxic,Toxic,3050 pg/mL,95,4820 pg/mL,100,2820 pg/mL,88,1930 pg/mL,60,
"poly{imino[2,2'-disulfo(1,1'-biphenyl)-4,4'-diyl]iminocarbonyl-1,4-phenylenecarbonyl}, alpha-{[(4-methylphenyl)amino]carbonyl}-omega-[(4-methylphenyl)amino]- [Example 8C]",> 100,2.2,,,,,,,,,,,,,,,
"poly{imino[2,2'-disulfo(1,1'-biphenyl)-4,4'-diyl]iminocarbonyl-1,4-phenylenecarbonyl}, alpha-{[(4-methylphenyl)amino]carbonyl}-omega-[(4-methylphenyl)amino]- [Example 8B]",> 100,2.1,,,,,,,,,,,,,,,
"poly{oxy[2,2'-disulfo(1,1'-biphenyl)-4,4'-diyl]oxy-carbonyl-1,4-phenylenecarbonyl}- [Example 6]",,,25,6800,12,neg,0,0,neg,0,neg,0,neg,0,neg,0,p24 3 days p.i. (HIV (Strain GB8); 100 μg/ml): neg; SYNCYTIA Day 2 (HIV (Strain RF); 50 μg/ml): 0; SYNCYTIA Day 2 (HIV (Strain RF); 100 μg/ml): 0
Dextran Sulfate [reference compound],,,,,,,,,,,,,,,,,"P24 (HIV-I (GB8)): 28710 pg/mL; MEAN SYNCYTIA (HIV-I (GB8); 2 days): 184; P24 % (HIV-I (GB8); % of control, 2880 min): 101%; SYNCYTIA % (HIV-I (GB8); % of control, 2880 min): 155%"
"poly{oxy[2,2'-disulfo(1,1'-biphenyl)-4,4'-diyl]oxy-carbonyl}, alpha-[(4-methylphenoxy)carbonyl]-omega-(4-methylphenoxy)- [Example 5]",,,> 200,67,68,neg,22,14,3250 pg/mL,100,2320 pg/mL,73,2780 pg/mL,87,1060 pg/mL,33,p24 3 days p.i. (HIV (Strain GB8); 100 μg/ml): neg; p24 3 days p.i. (HIV (Strain GB8); 200 μg/ml): neg
